Read-outs that look alike come from different tables or passages of the source.

By IC50 is commonly meant the point on the concentration scale where inhibition reaches its midpoint. As usually defined, the LogP is a log measure of how a compound divides between an organic and an aqueous phase. As usually defined, the pKa is the negative logarithm of the acid dissociation constant. As usually defined, the AUC(0-inf) is total exposure, with the tail of the curve extrapolated. As a reminder, the clearance is a measure of how efficiently the substance is removed, as volume per time. Low values mean a low capacity for elimination, high ones a high capacity for elimination.

In data set [1] the test system is KCNR cells. As to the kind of experiment: alamarBlue viability assay. The conditions noted are these: 24 h incubation, read-out: IC50 (cell viability). The class given is cell-based. How it is done:
Efficacy of YM155 loaded liposomes (targeted and non-targeted control liposomes) was studied on KCNR by alamarBlue viability assay (Thermo Fischer Scientific), according to the supplier’s instruction. KCNR cells were seeded at 20 × 10^3 cells/well in 96 well Greiner polystyrene plates (Sigma Aldrich) in complete DMEM medium and allowed to adhere overnight. The medium was replaced by cell culture medium supplemented with YM155 or YM155 liposomal formulations at concentrations ranging from 0.8 to 100 nM, after which the cell culture were incubated for 24 h at 37°C. Control experiments included incubations with empty liposomes (i.e. without YM155) at equivalent TL concentrations in the range of 0.08–11 μM TL. After 24 h of incubation, medium was replaced with drug-free medium containing alamarBlue reagent (10 vol%), after which cells were incubated for an extra 3 h at 37°C. Fluorescence was quantified with a microplate reader (Mithras LB940) and used to calculate the relative percentage of living cells normalized against control cells that had not been treated with YM155. IC50 values were calculated by curve fitting using non-linear regression in Graph Pad Prism 6.0.

A short description of data set [2]: Tumor accumulation of YM155 in subcutaneous KCNR tumor xenografts. The class given is in vivo, mice. The conditions noted are these: single i.v. 1 mg/kg. As for the experimental part:
Animal experiments were conducted in compliance with the national regulations and have been approved by the local ethical committee for animal experimentation. NMRI nu/nu female mice (25 g, Charles River, Massachusetts, USA) were housed in a temperature-controlled room (approximately 22°C) with 55 to 65% relative humidity, a photoperiod of 12/12 h with free access to water and pelleted rodent food. The mice were challenged with KCNR neuroblastoma (passage 1–2) derived from DAG102776 by serial xenotransplantation in both flanks. When the tumor growth reached the size of approximately 8 × 8 mm, mice were randomly divided in three groups that were injected intravenously with either free YM155 dissolved in HBS (1 mg/kg, n = 11), YM155 loaded anti-GD2-immunoliposomes (3 μmol TL/kg diluted in HBS, equivalent to 1 mg/kg YM155, n = 11), or an equivalent dose of YM155 loaded control liposomes (n = 11). […]
(§1) Pharmacokinetic analysis of the in-vivo data was performed using the Pk Solver 2.0 add-in template for Microsoft Excel, as described previously ([35]). Pharmacokinetic parameters were determined by non-compartmental analysis (NCA) using linear-logarithmic trapezoidal model fitting, or by compartmental analysis (CA) using 1-compartment model fitting.

For data set [3] the following is noted: Table I, no reference given; cited from earlier work.
Data set [4] in a line: Pharmacokinetic pilot study, YM155 in blood/plasma after single i.v. administration. Type of data set: in vivo, mice. As to conditions: for half-life / Vd: 1 mg/kg. How it is done: Animal experiments were conducted in compliance with the national regulations and have been approved by the local ethical committee for animal experimentation. NMRI nu/nu female mice (25 g, Charles River, Massachusetts, USA) were housed in a temperature-controlled room (approximately 22°C) with 55 to 65% relative humidity, a photoperiod of 12/12 h with free access to water and pelleted rodent food. The mice were challenged with KCNR neuroblastoma (passage 1–2) derived from DAG102776 by serial xenotransplantation in both flanks. When the tumor growth reached the size of approximately 8 × 8 mm, mice were randomly divided in three groups that were injected intravenously with either free YM155 dissolved in HBS (1 mg/kg, n = 11), YM155 loaded anti-GD2-immunoliposomes (3 μmol TL/kg diluted in HBS, equivalent to 1 mg/kg YM155, n = 11), or an equivalent dose of YM155 loaded control liposomes (n = 11). At designated time points (i.e. 5 min, 9 min, 15 min, 30 min, 1 h, 4 h, 8 h, 24 h, 48 h and 72 h), blood samples (approximately 0.5 ml per sampling time point) were collected in tubes containing EDTA as anticoagulant and mice were sacrificed. Blood samples and excised tumors were stored at −80°C until analysis of their YM155 concentration by liquid chromatography-tandem mass spectrometry (LC-MS/MS) ([34]).
as §1

For data set [5] the following is noted: cited from earlier work.
The subject of data set [6] is neuroblastoma cell lines. As to conditions: most neuroblastoma cell lines; Table I, no reference given; cited from earlier work.

For the compound `COCCn1c2c([n+](Cc3cnccn3)c1C)C(=O)c1ccccc1C2=O` [YM155, Sepantronium bromide], the IC50 was 27 nM in data set [1] and “Low nM range for most neuroblastoma cell lines” in data set [6]. Moreover, in data set [2], the “Time intratumor levels of YM155 could be detected post injection” value is reported as “up to 24 h”. Also, the LogP in data set [3] is on record as −3.7. The Solubility in water entry in data set [3] is listed as “At least 0,5 mg/ml”. Besides, the pKa in data set [3] is 5.3. For the same compound, the AUC(0-inf) in data set [4] (female, NMRI nu/nu, mouse, iv, single i.v. 1 mg/kg, NCA, blood/plasma) is 136 ng·h/mL. For the same compound, the half-life in data set [4] (female, NMRI nu/nu, mouse, plasma, iv, single i.v. 1 mg/kg YM155, female mice with KCNR xenografts, non-compartmental analysis, read-out: t1/2 (NCA) (converted)) is 24 min; in data set [4] (female, NMRI nu/nu, mouse, plasma, iv, single i.v. 1 mg/kg, compartmental analysis, 1-compartment model, read-out: CA t1/2 (converted)), 12 min. The Vd in data set [4] (female, NMRI nu/nu, mouse, plasma, iv, single i.v. 1 mg/kg, NCA, read-out: Vss) amounted to 2.47 L/kg; in data set [4] (female, NMRI nu/nu, mouse, plasma, iv, single i.v. 1 mg/kg, NCA, read-out: Vz), 4.65 L/kg. Further, in data set [4] (female, NMRI nu/nu, mouse, plasma, iv, single i.v. 1 mg/kg, NCA), the clearance is 122 mL/min/kg. Also, in data set [4] (female, NMRI nu/nu, mouse, plasma, iv, single i.v. 1 mg/kg, NCA, read-out: MRT0-∞), the MRT inf was 20.4 min. Also, the “Time plasma levels were detectable post administration” value in data set [4] (single i.v. 1 mg/kg) was “about 8 h”. For the same compound, the Previously reported half-life in data set [5] is on record as ~ 1 h. The Plasma half-life in data set [5] (mice and rats) is 1 to 2 h.

The record behind these values is paper PMC5842274, “Anti-GD2 Immunoliposomes for Targeted Delivery of the Survivin Inhibitor Sepantronium Bromide (YM155) to Neuroblastoma Tumor Cells” (Pharmaceutical Research, 2018).
